Target: T1, human PAH with the R408W mutation (Homo sapiens, UniProt P00439, R408W)
T1 construct: expressed in transfected cells
T1 sequence (P00439 1-452 R408W): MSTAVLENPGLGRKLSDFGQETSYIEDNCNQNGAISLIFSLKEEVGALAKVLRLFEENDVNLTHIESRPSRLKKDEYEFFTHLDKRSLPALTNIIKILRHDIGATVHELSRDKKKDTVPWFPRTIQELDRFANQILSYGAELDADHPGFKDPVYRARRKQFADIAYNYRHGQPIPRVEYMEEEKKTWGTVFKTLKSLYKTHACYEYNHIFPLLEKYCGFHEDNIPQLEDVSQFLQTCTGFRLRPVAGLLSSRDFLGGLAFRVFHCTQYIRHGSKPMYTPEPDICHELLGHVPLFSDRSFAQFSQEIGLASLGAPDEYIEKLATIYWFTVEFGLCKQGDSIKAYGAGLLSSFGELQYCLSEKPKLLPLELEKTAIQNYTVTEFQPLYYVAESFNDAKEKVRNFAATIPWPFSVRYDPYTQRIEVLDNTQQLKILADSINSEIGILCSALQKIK
Assay: Cell Based Phenylalanine Flux Assay
Conditions: A375 cells expressing human R408W PAH; 24 hrs compound incubation; 13C-Tyrosine by LC-MS; average where tested multiple times; read-out: AC50

Row | Structure (SMILES) | AC50
1 | O=C(c1nnc(-c2ccn(C(F)F)n2)o1)N1CCc2[nH]cnc2[C@@H]1c1ncc2ccccc2n1 [Example 190, (R)-(5-(1-(difluoromethyl)-1H-pyrazol-3-yl)-1,3,4-oxadiazol-2-yl)(4-(quinazolin-2-yl)-6,7-dihydro-1H-imidazo[4,5-c]pyridin-5(4H)-yl)methanone] | 1 to 5 µM
2 | O=C(c1nnc(-c2cnccn2)o1)N1CCc2[nH]cnc2[C@@H]1c1ncc2ccccc2n1 [Example 191, (R)-(5-(pyrazin-2-yl)-1,3,4-oxadiazol-2-yl)(4-(quinazolin-2-yl)-6,7-dihydro-1H-imidazo[4,5-c]pyridin-5(4H)-yl)methanone] | > 5 µM
3 | O=C(c1nnc(-c2cnccn2)o1)N1CCc2[nH]cnc2[C@H]1c1ncc2ccccc2n1 [Example 192, (S)-(5-(pyrazin-2-yl)-1,3,4-oxadiazol-2-yl)(4-(quinazolin-2-yl)-6,7-dihydro-1H-imidazo[4,5-c]pyridin-5(4H)-yl)methanone] | 0.5 to 1 µM
4 | Cc1nc(-c2ccccn2)oc1C(=O)N1CCc2[nH]cnc2[C@H]1c1ncc2ccccc2n1 [Example 193, (S)-(4-methyl-2-(pyridin-2-yl)oxazol-5-yl)(4-(quinazolin-2-yl)-6,7-dihydro-1H-imidazo[4,5-c]pyridin-5(4H)-yl)methanone] | < 0.5 µM
5 | Cc1nc(-c2ccccn2)oc1C(=O)N1CCc2[nH]cnc2[C@@H]1c1ncc2ccccc2n1 [Example 194, (R)-(4-methyl-2-(pyridin-2-yl)oxazol-5-yl)(4-(quinazolin-2-yl)-6,7-dihydro-1H-imidazo[4,5-c]pyridin-5(4H)-yl)methanone] | 1 to 5 µM
6 | O=C(c1nnc(-c2ccc(OC(F)(F)F)cn2)o1)N1CCc2[nH]cnc2[C@H]1c1ncc2ccccc2n1 [Example 195, (S)-(4-(quinazolin-2-yl)-6,7-dihydro-1H-imidazo[4,5-c]pyridin-5(4H)-yl)(5-(5-(trifluoromethoxy)pyridin-2-yl)-1,3,4-oxadiazol-2-yl)methanone] | < 0.5 µM
7 | O=C(c1nnc(-c2ccc(OC(F)(F)F)cn2)o1)N1CCc2[nH]cnc2[C@@H]1c1ncc2ccccc2n1 [Example 196, (R)-(4-(quinazolin-2-yl)-6,7-dihydro-1H-imidazo[4,5-c]pyridin-5(4H)-yl)(5-(5-(trifluoromethoxy)pyridin-2-yl)-1,3,4-oxadiazol-2-yl)methanone] | > 5 µM
8 | Cc1nn(C)cc1-c1nnc(C(=O)N2CCc3[nH]cnc3[C@@H]2c2ncc3ccccc3n2)o1 [Example 199, (R)-(5-(1,3-dimethyl-1H-pyrazol-4-yl)-1,3,4-oxadiazol-2-yl)(4-(quinazolin-2-yl)-6,7-dihydro-1H-imidazo[4,5-c]pyridin-5(4H)-yl)methanone] | > 5 µM
9 | Cc1nn(C)cc1-c1nnc(C(=O)N2CCc3[nH]cnc3[C@H]2c2ncc3ccccc3n2)o1 [Example 200, (S)-(5-(1,3-dimethyl-1H-pyrazol-4-yl)-1,3,4-oxadiazol-2-yl)(4-(quinazolin-2-yl)-6,7-dihydro-1H-imidazo[4,5-c]pyridin-5(4H)-yl)methanone] | < 0.5 µM
10 | Cn1nccc1-c1nnc(C(=O)N2CCc3[nH]cnc3[C@H]2c2ncc3ccccc3n2)o1 [Example 203, (S)-(5-(1-methyl-1H-pyrazol-5-yl)-1,3,4-oxadiazol-2-yl)(4-(quinazolin-2-yl)-6,7-dihydro-1H-imidazo[4,5-c]pyridin-5(4H)-yl)methanone] | < 0.5 µM
11 | Cn1nccc1-c1nnc(C(=O)N2CCc3[nH]cnc3[C@@H]2c2ncc3ccccc3n2)o1 [Example 204, (R)-(5-(1-methyl-1H-pyrazol-5-yl)-1,3,4-oxadiazol-2-yl)(4-(quinazolin-2-yl)-6,7-dihydro-1H-imidazo[4,5-c]pyridin-5(4H)-yl)methanone] | 1 to 5 µM
12 | O=C(c1cnc(-c2ccccn2)s1)N1CCc2[nH]cnc2[C@H]1c1cc2ccccc2nn1 [Example 205, (S)-(4-(cinnolin-3-yl)-6,7-dihydro-1H-imidazo[4,5-c]pyridin-5(4H)-yl)(2-(pyridin-2-yl)thiazol-5-yl)methanone] | 0.5 to 1 µM
13 | O=C(CCc1nccs1)N1CCc2[nH]cnc2[C@H]1c1ccc2ccccc2c1 [Example 219, (R)-1-(4-(naphthalen-2-yl)-6,7-dihydro-1H-imidazo[4,5-c]pyridin-5(4H)-yl)-3-(thiazol-2-yl)propan-1-one] | 0.5 to 1 µM
14 | O=C(c1cncs1)N1CCc2[nH]cnc2[C@H]1c1ccc2ccccc2c1 [Example 221, (R)-(4-(naphthalen-2-yl)-6,7-dihydro-1H-imidazo[4,5-c]pyridin-5(4H)-yl)(thiazol-5-yl)methanone] | 1 to 5 µM
15 | O=C(c1cncs1)N1CCc2[nH]cnc2[C@@H]1c1ccc2ccccc2c1 [Example 222, (S)-(4-(naphthalen-2-yl)-6,7-dihydro-1H-imidazo[4,5-c]pyridin-5(4H)-yl)(thiazol-5-yl)methanone] | > 5 µM
16 | O=C(c1cnc(-c2ccccn2)s1)N1CCc2[nH]cnc2[C@H]1c1ccc2ccccc2c1 [Example 223, (R)-(4-(naphthalen-2-yl)-6,7-dihydro-1H-imidazo[4,5-c]pyridin-5(4H)-yl)(2-(pyridin-2-yl)thiazol-5-yl)methanone] | 1 to 5 µM
17 | O=C(c1cnc(-c2ccccn2)s1)N1CCc2[nH]cnc2[C@@H]1c1ccc2ccccc2c1 [Example 224, (S)-(4-(naphthalen-2-yl)-6,7-dihydro-1H-imidazo[4,5-c]pyridin-5(4H)-yl)(2-(pyridin-2-yl)thiazol-5-yl)methanone] | > 5 µM

Now from value to compound:

Row | AC50 | Structure (SMILES)
18 | 0.5 to 1 µM | Cn1cnc(-c2nnc(C(=O)N3CCc4[nH]cnc4[C@H]3c3ncc4ccccc4n3)o2)c1 [Example 197, (S)-(5-(1-methyl-1H-imidazol-4-yl)-1,3,4-oxadiazol-2-yl)(4-(quinazolin-2-yl)-6,7-dihydro-1H-imidazo[4,5-c]pyridin-5(4H)-yl)methanone]
19 | < 0.5 µM | CC(C)(C)c1nnc(C(=O)N2CCc3[nH]cnc3[C@H]2c2ncc3ccccc3n2)o1 [Example 201, (S)-(5-(tert-butyl)-1,3,4-oxadiazol-2-yl)(4-(quinazolin-2-yl)-6,7-dihydro-1H-imidazo[4,5-c]pyridin-5(4H)-yl)methanone]
20 | > 5 µM | CC(C)(C)c1nnc(C(=O)N2CCc3[nH]cnc3[C@@H]2c2ncc3ccccc3n2)o1 [Example 202, (R)-(5-(tert-butyl)-1,3,4-oxadiazol-2-yl)(4-(quinazolin-2-yl)-6,7-dihydro-1H-imidazo[4,5-c]pyridin-5(4H)-yl)methanone]
21 | 1 to 5 µM | O=C(c1cnc(-c2ccccn2)s1)N1CCc2[nH]cnc2[C@@H]1c1cc2ccccc2nn1 [Example 206, (R)-(4-(cinnolin-3-yl)-6,7-dihydro-1H-imidazo[4,5-c]pyridin-5(4H)-yl)(2-(pyridin-2-yl)thiazol-5-yl)methanone]
22 | > 5 µM | Cc1nc(-c2ccccn2)oc1C(=O)N1CCc2[nH]cnc2[C@@H]1c1cc2ccccc2nn1 [Example 207]
23 | 0.5 to 1 µM | Cc1nc(-c2ccccn2)oc1C(=O)N1CCc2[nH]cnc2[C@H]1c1cc2ccccc2nn1 [Example 208, (S)-(4-(cinnolin-3-yl)-6,7-dihydro-1H-imidazo[4,5-c]pyridin-5(4H)-yl)(4-methyl-2-(pyridin-2-yl)oxazol-5-yl)methanone]
24 | < 0.5 µM | CC(C)(O)c1nc(C(F)F)c(C(=O)N2CCc3[nH]cnc3[C@H]2c2cc3ccccc3nn2)o1 [Example 209, (S)-(4-(cinnolin-3-yl)-6,7-dihydro-1H-imidazo[4,5-c]pyridin-5(4H)-yl)(4-(difluoromethyl)-2-(2-hydroxypropan-2-yl)oxazol-5-yl)methanone]
25 | 1 to 5 µM | CC(C)(O)c1nc(C(F)F)c(C(=O)N2CCc3[nH]cnc3[C@@H]2c2cc3ccccc3nn2)o1 [Example 210, (R)-(4-(cinnolin-3-yl)-6,7-dihydro-1H-imidazo[4,5-c]pyridin-5(4H)-yl)(4-(difluoromethyl)-2-(2-hydroxypropan-2-yl)oxazol-5-yl)methanone]
26 | < 0.5 µM | Cc1ncoc1C(=O)N1CCc2[nH]cnc2[C@H]1c1cc2ccccc2nn1 [Example 211, (S)-(4-(cinnolin-3-yl)-6,7-dihydro-1H-imidazo[4,5-c]pyridin-5(4H)-yl)(4-methyloxazol-5-yl)methanone]
27 | < 0.5 µM | O=C(c1ccnn1C(F)F)N1CCc2[nH]cnc2[C@H]1c1cc2ccccc2nn1 [Example 213, (S)-(4-(cinnolin-3-yl)-6,7-dihydro-1H-imidazo[4,5-c]pyridin-5(4H)-yl)(1-(difluoromethyl)-1H-pyrazol-5-yl)methanone]
28 | 1 to 5 µM | O=C(c1ccnn1C(F)F)N1CCc2[nH]cnc2[C@@H]1c1cc2ccccc2nn1 [Example 214, (R)-(4-(cinnolin-3-yl)-6,7-dihydro-1H-imidazo[4,5-c]pyridin-5(4H)-yl)(1-(difluoromethyl)-1H-pyrazol-5-yl)methanone]
29 | 1 to 5 µM | O=C(C1CC1)N1CCc2[nH]cnc2[C@H]1c1cc2ccccc2nn1 [Example 215, (S)-(4-(cinnolin-3-yl)-6,7-dihydro-1H-imidazo[4,5-c]pyridin-5(4H)-yl)(cyclopropyl)methanone]
30 | 1 to 5 µM | O=C(C1CC1)N1CCc2[nH]cnc2[C@@H]1c1cc2ccccc2nn1 [Example 216, (R)-(4-(cinnolin-3-yl)-6,7-dihydro-1H-imidazo[4,5-c]pyridin-5(4H)-yl)(cyclopropyl)methanone]
31 | 0.5 to 1 µM | CC(C)(F)c1nnc(C(=O)N2CCc3[nH]cnc3[C@H]2c2cc3ccccc3nn2)o1 [Example 218, (S)-(4-(cinnolin-3-yl)-6,7-dihydro-1H-imidazo[4,5-c]pyridin-5(4H)-yl)(5-(2-fluoropropan-2-yl)-1,3,4-oxadiazol-2-yl)methanone]

From patent US20250262201A1, “COMPOUNDS AND METHODS USEFUL FOR STABILIZING PHENYLALANINE HYDROXYLASE MUTATIONS” (Agios Pharmaceuticals, Inc., priority 2022, published 2025)
